The results in this text go back to PubChem BioAssay (NCI).

Common to all, as to experiment: NCI-60 cell line screen, 48 h
Experiment [1] deals with 786-0 renal.
For experiment [2], the system named is A498 renal.
The test system of experiment [3] is CAKI-1 renal.
In experiment [4] the test system is HCT-116 colon.
In experiment [5] the test system is HL-60(TB) leukemia.
Experiment [6] relates to NCI-H522 lung.
For experiment [7], the system named is OVCAR-4 ovarian.
Experiment [8] concerns T-47D breast.
The test system of experiment [9] is U251 CNS.
For experiment [10], the system named is UACC-257 melanoma.

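Values below derive from 48-hour exposures of cells grown in 96-well plates, with endpoints linearly interpolated between the two concentrations bracketing the appropriate inhibition level. The concentration for full growth arrest is given as TGI.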

For the molecule `Cc1cc(C)c2c(=O)n(CC(O)CN3CCN(c4ncccn4)CC3)sc2n1` (stereo not given), the TGI in experiment [1] is 27.6 µM; in [2] it was 31.1 µM; in [3] it was 39.5 µM; in [4], 29 µM; in [5], 38.9 µM; in [6] it was 26.6 µM. The TGI in experiment [7] turned out to be 37.3 µM; in experiment [8], 52.9 µM; in experiment [9] it was 31.7 µM; in [10], 30.4 µM.

For `C/C(=C/CC[C@](C)(OC1OC(CO)C(O)C(O)C1OC1OC(C)C(O)C(O)C1O)[C@H]1CC[C@]2(C)[C@@H]1CC[C@@H]1[C@@]3(C)CC[C@H](O)C(C)(C)[C@@H]3C[C@H](O)[C@]12C)CO` (stereo not given in full), the TGI in experiment [1], in experiment [2], in experiment [3], in [4], in experiment [5] and in experiment [6] was more than 100 µM in each case. Moreover, the TGI in experiment [7], in experiment [8], in experiment [9] and in experiment [10] was more than 100 µM each time.

With `O=C(NCCc1ccc(F)cc1)c1cc(/C=C/c2cc(O)ccc2O)ccc1O`, the TGI amounted to 5.03 µM in experiment [1]; 14.1 µM in experiment [2]; 15 µM in [3]; 3.94 µM in experiment [4]; 15.4 µM in experiment [5]; 4.88 µM in experiment [6]. The TGI in experiment [7] came to 12 µM; in [8], 5.28 µM; in [9], 4.49 µM; in experiment [10], 6.52 µM.

As for `NC(=O)NC1=NCCC(=O)N1CCc1c[nH]c2ccccc12`, the TGI is more than 100 µM in experiment [1]; 46.1 µM in [2]; 6.54 µM in [3]; 26.4 µM in [4]; 42.5 µM in [5]; 52.1 µM in experiment [6]. Moreover, the TGI in experiment [7] was 52.9 µM; in [8], 65.5 µM; in experiment [9], more than 100 µM; in experiment [10], 34.6 µM.

As to `O=C1OS2(OC(=O)c3cccc4cccc2c34)c2ccccc21` (stereo not given), the TGI in experiment [1], in experiment [2], in [3], in [4], in experiment [5] and in [6] was more than 100 µM throughout. Besides, the TGI in experiment [7], in experiment [8], in experiment [9] and in experiment [10] was more than 100 µM throughout.

As for `Nc1c2c(nc3ccccc13)-c1ccccc1CCC2`, the TGI stood at 27.1 µM in experiment [1]; 21.4 µM in experiment [2]; 32.5 µM in experiment [3]; 20.2 µM in experiment [4]; 26.4 µM in [5]; 32.4 µM in experiment [6]. Besides, the TGI in experiment [7] stood at 35.6 µM; in experiment [8], 37.5 µM; in experiment [9], 28.3 µM; in experiment [10], 19.4 µM.

Regarding `COC(=O)/C=C1\C(=O)N(C(C)=O)c2ccccc21`, the TGI in experiment [1] is 20.9 µM; in [2], 20 µM; in experiment [3], 0.184 µM; in experiment [4] it was 31.2 µM; in experiment [5], 5.61 µM; in experiment [6], 15.6 µM. Besides, the TGI was found to be 17.5 µM in experiment [7], 30.5 µM in experiment [8], 37.2 µM in experiment [9] and 22.2 µM in experiment [10].

`COc1cc2[nH]c(=O)[nH]c2c2c(C)c[nH]c12`: the TGI in [1], in [2], in experiment [3], in [4], in [5] and in experiment [6] was more than 100 µM throughout. The TGI in experiment [7], in [8], in experiment [9] and in [10] was more than 100 µM throughout.

Regarding `CCOC(=O)n1c2ccccc2c2c(O)c(OC)c3c(c21)C(=O)NC3=O`, the TGI in experiment [1] is 98.5 µM; in experiment [2], more than 100 µM; in experiment [3] it was 64.7 µM; in experiment [4], 49 µM; in experiment [5], 49.2 µM; in experiment [6], more than 100 µM. In addition, the TGI in experiment [7], in experiment [8], in [9] and in [10] was more than 100 µM each time.

Turning to `CS(=O)(=O)c1ccc(C2=C(c3ccccc3)C(=O)OC2)cc1`, the TGI in experiment [1], in experiment [2], in [3], in experiment [4], in [5] and in experiment [6] was more than 100 µM each time. Moreover, the TGI in experiment [7], in experiment [8], in [9] and in [10] was more than 100 µM in each case.

Turning to `CO/C=C(/C(=O)OC)c1ccccc1[C@H]1C[C@@H]1c1ccc(OC)cc1`, the TGI was more than 100 µM in experiment [1]; more than 100 µM in experiment [2]; 57.4 µM in experiment [3]; 44.5 µM in [4]; 62.4 µM in experiment [5]; 25.5 µM in experiment [6]. Also, the TGI was 45 µM in experiment [7], 56.7 µM in experiment [8], more than 100 µM in experiment [9] and 72.8 µM in [10].
